On the set-up of series [1]: method as in doi:10.5958/0974-360X.2019.00624.3. Particulars: oral administration at 10 mg/kg; cited from earlier work.
Series [2] relates to rat CYP2C. As to the kind of experiment: Disappearance in RLM with CYP isoform-selective inhibitor SPZ. The series is classed as in vitro ADME. To be noted: acacetin 20 μM, 10-μM SPZ, NADPH, 5 min. The method, then:
(§1) To investigate hepatic phase I enzymes- and UGT-dependent metabolism of acacetin, the disappearance rate of acacetin at concentrations of 1–200 µM in RLM was measured in the presence of both NADPH and UDPGA. The substrate (acacetin) concentration ((S); µM) versus the initial metabolic rate (V; nmol/min/mg protein) profiles were interpreted based on Michaelis–Menten kinetics, and relevant parameters were estimated via nonlinear regression analysis (GraphPad Prism ver. 5.01; GraphPad Software, San Diego, CA, USA) using the following Michaelis–Menten equation: V = Vmax× [S]/Km× [S] where Km and Vmax are the Michaelis–Menten constant and maximal metabolic rate, respectively. The unbound intrinsic metabolic clearance (CLint) was calculated as Vmax/(Km × fuMIC). Furthermore, the disappearance of acacetin (20 μM) in the absence or presence of specific CYP isoform-selective inhibitors in RLM was determined to study the hepatic CYP-mediated metabolism of acacetin. Microsomal incubation mixtures (total volume of 200 μL) were prepared as follows: RLM (0.5 mg/mL microsomal protein), 1 mM NADPH, 10 mM MgCl2, 50 mM potassium phosphate buffer, acacetin, with or without CYP isoform-selective inhibitors (10 μM NF for rat CYP1A, 10-μM SPZ for rat CYP2C, 10-μM QND for rat CYP2D, and 10-μM KCZ for rat CYP3A). […]

Series [3] can be described thus: Stability in phosphate buffers, plasma, RLM, SGF and SIF. The series is classed as physicochemical. To be noted: for Initially spiked amount remaining after 24 h: 10 μM. How it is done:
The stability of acacetin was determined in several matrices such as phosphate buffers (pH 1.0, 3.0, 5.0, 7.0, 9.0, 11.0, and 13.0), plasma, RLM, SGF, and SIF. The samples spiked with acacetin (10 μM) were incubated at 37 °C, and 120 μL aliquots of the samples were collected at 0, 15, 30, 60, 120, 180, 240, 360, 420, 600, and 1440 min. The collected samples were diluted with acetonitrile to obtain a proper concentration and analyzed by the LC-MS/MS method.

Series [4] can be described thus: Equilibrium solubility in water, pH 7.4 phosphate buffer, SGF and SIF. It is filed as physicochemical. How it is done:
Simulated gastric fluid (SGF) consisted of 0.2% (w/v) sodium chloride, 0.32% (w/v) pepsin, and 0.7% (v/v) HCl (final pH = 1.2). Simulated intestinal fluid (SIF) was prepared by dissolving 3 mM sodium taurocholate and 0.1% (w/v) pancreatin in phosphate buffer (final pH = 7.0). The solubility of acacetin was measured by adding excessive amounts of acacetin into glass vials containing 1.5 mL of water, pH 7.4 phosphate buffer, SGF, and SIF. The mixtures were allowed to reach equilibrium in a shaking incubator (FINEPCR, Gyeonggi-do, South Korea) at 500 rpm at 37 °C for 48 h. The samples were centrifuged at 16,000× g for 5 min, and the supernatant was passed through a 0.20-μm syringe filter to remove excess acacetin. Further, the concentration of acacetin in the filtrate was determined using the LC-MS/MS method. The distribution coefficients of acacetin in water (log P) and pH 7.4 phosphate buffer (log D7.4) were determined using an octanol–water system at 25 ± 0.5 °C. The two phases were pre-saturated with each other by vigorous vortex-mixing for 15 min and further stabilized overnight for phase separation. A certain amount of acacetin (less than its solubility) was dissolved in the pre-saturated octanol, vortex mixed with the same volume of pre-saturated water for 1 h, shaken for 24 h, and further centrifuged at 16,000× g for 30 min. Finally, the acacetin concentrations in the octanol and water layers were determined using the LC-MS/MS method. The membrane permeability of acacetin and reference compounds (verapamil as a reference for high permeability and ranitidine as a reference for low permeability) was assessed by parallel artificial membrane permeability assay (PAMPA). The PAMPA was conducted using a commercially available PAMPA kit (GIT PAMPA Double Sink; pION Inc., Massachusetts, MA, USA) according to the manufacturer’s protocol. The permeability was calculated using pION PAMPA Explorer ver. 3.8 software (pION Inc., Massachusetts, MA, USA).

For series [5], the system named is rat CYP3A. Kind of series: Disappearance in RLM with CYP isoform-selective inhibitor KCZ. The series is classed as in vitro ADME. To be noted: acacetin 20 μM, 10-μM KCZ, NADPH, 5 min. The method, then: as §1
A short description of series [6]: Parallel artificial membrane permeability assay (PAMPA). It is filed as in vitro ADME. To be noted: GIT PAMPA Double Sink. The method, then: Simulated intestinal fluid (SIF) was prepared by dissolving 3 mM sodium taurocholate and 0.1% (w/v) pancreatin in phosphate buffer (final pH = 7.0). The solubility of acacetin was measured by adding excessive amounts of acacetin into glass vials containing 1.5 mL of water, pH 7.4 phosphate buffer, SGF, and SIF. […] The samples were centrifuged at 16,000× g for 5 min, and the supernatant was passed through a 0.20-μm syringe filter to remove excess acacetin. Further, the concentration of acacetin in the filtrate was determined using the LC-MS/MS method. […] Finally, the acacetin concentrations in the octanol and water layers were determined using the LC-MS/MS method. […] The PAMPA was conducted using a commercially available PAMPA kit (GIT PAMPA Double Sink; pION Inc., Massachusetts, MA, USA) according to the manufacturer's protocol. The permeability was calculated using pION PAMPA Explorer ver. 3.8 software (pION Inc., Massachusetts, MA, USA).

The nature of series [7]: Michaelis–Menten metabolic kinetics in RLM with NADPH and UDPGA. The series is classed as in vitro ADME, rat. To be noted: NADPH and UDPGA/alamethicin. How it is done:
To investigate hepatic phase I enzymes- and UGT-dependent metabolism of acacetin, the disappearance rate of acacetin at concentrations of 1–200 µM in RLM was measured in the presence of both NADPH and UDPGA. The substrate (acacetin) concentration ((S); µM) versus the initial metabolic rate (V; nmol/min/mg protein) profiles were interpreted based on Michaelis–Menten kinetics, and relevant parameters were estimated via nonlinear regression analysis (GraphPad Prism ver. 5.01; GraphPad Software, San Diego, CA, USA) using the following Michaelis–Menten equation: V = Vmax× [S]/Km× [S] where Km and Vmax are the Michaelis–Menten constant and maximal metabolic rate, respectively. The unbound intrinsic metabolic clearance (CLint) was calculated as Vmax/(Km × fuMIC). Furthermore, the disappearance of acacetin (20 μM) in the absence or presence of specific CYP isoform-selective inhibitors in RLM was determined to study the hepatic CYP-mediated metabolism of acacetin. Microsomal incubation mixtures (total volume of 200 μL) were prepared as follows: RLM (0.5 mg/mL microsomal protein), 1 mM NADPH, 10 mM MgCl2, 50 mM potassium phosphate buffer, acacetin, with or without CYP isoform-selective inhibitors (10 μM NF for rat CYP1A, 10-μM SPZ for rat CYP2C, 10-μM QND for rat CYP2D, and 10-μM KCZ for rat CYP3A). At 0 and 5 min after initiating the metabolic reaction, a 100-μL aliquot of the incubation mixture was taken, transferred into a clean 1.5 mL microcentrifuge tube containing 100 μL cold acetonitrile to terminate the metabolic reaction, and finally treated in the same manner as described for the tissue S9 fraction samples.

Results on one compound are retold here after article PMC7911516, “Investigation of the Factors Responsible for the Poor Oral Bioavailability of Acacetin in Rats: Physicochemical and Biopharmaceutical Aspects” (Pharmaceutics, 2021).

In brackets after ≈: the same amount, converted by molar mass. Read-outs that look alike come from different tables or passages of the source.

With `COc1ccc(-c2cc(=O)c3c(O)cc(O)cc3o2)cc1` [acacetin, Acacetin], in series [1], the Cmax was 1.668 µg/mL. Also, the bioavailability in series [1] is reported as 84%. For the same compound, in series [2], the “Reduction of relative disappearance rate in presence of SPZ” value was found to be 25.8%. Also, the “Stability (stable = more than 85% remaining)” value in series [3] (SGF and SIF) was “unstable”; in series [3] (acidic and neutral conditions (pH 1–7)), “unstable”; in series [3] (basic conditions (pH 9, 11, 13)), “stable”; in series [3] (plasma and RLM, absence of NADPH and UDPGA/alamethicin), “stable”. Also, the “Initially spiked amount remaining after 24 h” value in series [3] (SGF and SIF, 37 °C) is 27.5–62.0%; in series [3] (phosphate buffers, pH range 1–7, 37 °C), 16.1–35.9%. Besides, the “Remaining after 24 h” value in series [3] (pH 7 phosphate buffer and simulated GI fluids (as worded in abstract)) is recorded as 27.5–62.0%. The solubility at 48 h in series [4] (aqueous buffer, thermodynamic from solid, pH 7.4 phosphate buffer, 37 °C, 48 h, read-out: Solubility, pH 7.4 phosphate buffer) is 0.0121 ± 0.0011 µg/mL (≈ 0.0426 µM); in series [4] (fassgf or other biorelevant, thermodynamic from solid, SIF pH 7.0, 37 °C, 48 h, read-out: Solubility, SIF), 0.119 ± 0.008 µg/mL (≈ 0.419 µM); in series [4] (pH 7 phosphate buffer, SGF and SIF, pH 7, in abstract, read-out: Solubility in pH 7 phosphate buffer and simulated GI fluids) it was at most 0.119 µg/mL; in series [4] (simulated gastric fluid, thermodynamic from solid, SGF pH 1.2, 37 °C, 48 h, read-out: Solubility, SGF), 0.0593 ± 0.0071 µg/mL (≈ 0.209 µM); in series [4] (thermodynamic from solid, water, 37 °C, 48 h, read-out: Solubility, Water) it was 0.0401 ± 0.0073 µg/mL (≈ 0.141 µM); in series [4] (water, pH 7.4 phosphate buffer, SGF and SIF, pH 7.4, upper bound over all four media, read-out: Solubility in water, pH 7.4 buffer, SGF, and SIF) it was at most 0.119 µg/mL. Besides, the “Reduction of relative disappearance rate in presence of KCZ” value in series [5] amounted to 43.7%. In series [6], this compound showed a Papp of 80.6 ± 9.1 nm/s. The Vmax in series [7] is 95.0 ± 5.6 nmol/min/mg protein. In addition, the Km in series [7] (1–200 µM) was determined as 187 ± 14 µM. Further, the microsomal CLint in series [7] (Sprague-Dawley, rat, liver microsomes (RLM)) is 508 ± 9 µL/min/mg.

In general, Cmax refers to the highest concentration seen after dosing. A word on the bioavailability: it is dose-corrected exposure relative to a reference, in per cent. A word on the solubility: it is the dissolved amount per volume that the medium holds. As usually defined, the Papp is a coefficient for how fast a substance crosses the barrier. Low values mean poor permeation, high ones ready permeation. The term Km denotes the substrate concentration at which the rate is half of its maximum. Usually microsomal CLint stands for the rate of metabolic loss divided by the concentration.
